From US20110183995A1, “ELTOPRAZINE FOR SUPPRESSION OF L-DOPA INDUCED DYSKINESIAS” (Neurosearch A/S, priority 2008, published 2011)

Columns and labels:
[1] = tested on: 6-OHDA-lesioned rats; assay: Antidyskinetic effect of Eltoprazine in the rat 6-OHDA model (L-DOPA-induced dyskinesia, total AIM score); assay type: in vivo; settings: for reduction of dyskinesia (total score: limb, axial and orolingual): compared to the control L-DOPA-only treated group, two-hour test
Protocol: In this experiment we determined the antidyskinetic properties of Eltoprazine.
6-OHDA-lesioned rats were made dyskinetic and allocated into three well-balanced groups (n=6 per group), which were challenge on the day of the experiments with L-DOPA-only, L-DOPA plus Eltoprazine 0.1 mg/kg or L-DOPA plus Eltoprazine 0.3 mg/kg, respectively.
Limb, axial and orolingual dyskinesias were scored over the tow-hour test and the sum is reported here as the total score, and the results are presented in FIG. 4.

[2] = tested on: PD patients; settings: large phase III clinical trial, terminated; cited from earlier work

SMILES | reduction of dyskinesia (total score: limb, axial and orolingual) ([1]; Eltoprazine 0.1 mg/kg plus L-DOPA) | reduction of dyskinesia (total score: limb, axial and orolingual) ([1]; Eltoprazine 0.3 mg/kg plus L-DOPA) | suppression of L-DOPA-induced dyskinesia ([1]; rats, higher dose alone) | clinical antidyskinetic efficacy [2]
c1cc2c(c(N3CCNCC3)c1)OCCO2 [Eltoprazine, 1-(2,3-Dihydro-benzo[1,4]dioxin-5-yl)piperazine] | approximately 50% | near-complete abolishment | near-complete suppression | –
Fc1ccc(-c2cncc(CNC[C@H]3CCc4ccccc4O3)c2)cc1 [Sarizotan] | – | – | – | lack of efficacy
